Assay [1] addresses T1, recombinant guanylate cyclase reporter cell line (Rattus norvegicus, UniProt P20595).
T1 construct: expressed in transfected cells; host or cells: CHO
T1 sequence (P20595 1-619): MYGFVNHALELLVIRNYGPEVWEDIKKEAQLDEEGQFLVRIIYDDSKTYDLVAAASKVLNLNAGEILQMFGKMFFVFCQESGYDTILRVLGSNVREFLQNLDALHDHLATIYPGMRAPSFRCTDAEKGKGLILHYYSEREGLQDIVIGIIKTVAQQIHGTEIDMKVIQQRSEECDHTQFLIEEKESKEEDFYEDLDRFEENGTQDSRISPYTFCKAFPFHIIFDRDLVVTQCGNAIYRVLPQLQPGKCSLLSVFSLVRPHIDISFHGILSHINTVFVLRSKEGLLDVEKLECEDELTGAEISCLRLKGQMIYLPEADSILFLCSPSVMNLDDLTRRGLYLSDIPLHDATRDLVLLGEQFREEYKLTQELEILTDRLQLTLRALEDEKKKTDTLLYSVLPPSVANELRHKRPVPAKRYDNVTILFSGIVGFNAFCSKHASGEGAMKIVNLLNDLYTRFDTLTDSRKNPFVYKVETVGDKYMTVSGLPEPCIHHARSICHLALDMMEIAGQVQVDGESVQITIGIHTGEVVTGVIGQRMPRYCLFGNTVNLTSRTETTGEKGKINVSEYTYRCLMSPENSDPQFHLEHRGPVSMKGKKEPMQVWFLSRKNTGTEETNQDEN
T1 sequence (P19686 1-690 partner): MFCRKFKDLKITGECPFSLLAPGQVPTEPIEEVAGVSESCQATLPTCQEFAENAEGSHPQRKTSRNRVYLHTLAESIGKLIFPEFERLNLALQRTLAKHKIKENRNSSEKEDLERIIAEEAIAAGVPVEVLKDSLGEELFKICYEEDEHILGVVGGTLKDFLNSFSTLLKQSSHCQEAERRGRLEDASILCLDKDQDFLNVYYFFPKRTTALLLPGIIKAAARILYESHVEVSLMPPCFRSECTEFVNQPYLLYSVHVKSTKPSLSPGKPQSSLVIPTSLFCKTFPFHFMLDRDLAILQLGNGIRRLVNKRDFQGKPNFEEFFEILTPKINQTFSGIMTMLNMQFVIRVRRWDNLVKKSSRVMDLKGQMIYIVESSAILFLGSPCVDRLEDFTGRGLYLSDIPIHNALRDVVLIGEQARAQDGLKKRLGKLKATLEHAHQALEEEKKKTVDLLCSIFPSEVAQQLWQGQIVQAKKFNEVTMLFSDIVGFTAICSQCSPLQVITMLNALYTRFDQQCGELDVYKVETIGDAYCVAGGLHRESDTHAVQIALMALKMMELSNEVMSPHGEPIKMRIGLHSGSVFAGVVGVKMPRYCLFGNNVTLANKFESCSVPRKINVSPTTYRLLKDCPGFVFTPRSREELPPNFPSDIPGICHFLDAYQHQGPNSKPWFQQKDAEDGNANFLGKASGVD
Description: sGC-activating activity in the CHO reporter cell in vitro. The format is cell-based. As to the method:
B-3. Action at Recombinant Guanylate Cyclase Reporter Cell Lines
The cellular action of the compounds according to the invention is determined using a recombinant guanylate cyclase reporter cell line, as described in F. Wunder et al., Anal. Biochem. 339, 104-112 (2005).

The subject of assay [2] is saphenous artery. Description: Vasorelaxant effect in vitro (phenylephrine-contracted artery rings). Set-up: species or system Rabbits. To be noted: Oryctolagus cuniculus; rabbit saphenous artery rings, contraction induced by phenylephrine. As to the method:
B-1. Vasorelaxant Effect In Vitro:
Rabbits are anesthetized and sacrificed by intravenous injection of thiopental sodium (about 50 mg/kg) and exsanguinated. The saphenous artery is removed and divided into rings 3 mm wide. The rings are mounted singly on in each case a pair of triangular hooks open at the end and made of 0.3 mm-thick special wire (Remanium®). Each ring is placed under an initial tension in 5 ml organ baths with Krebs-Henseleit solution which is at 37° C., is gassed with carbogen and has the following composition: NaCl 119 mM; KCl 4.8 mM; CaCl2×2H2O 1 mM; MgSO4×7H2O 1.4 mM; KH2PO4 1.2 mM; NaHCO3 25 mM; glucose 10 mM; bovine serum albumin 0.001%. The force of contraction is detected with Statham UC2 cells, amplified and digitized via A/D converters (DAS-1802 HC, Keithley Instruments, Munich) and recorded in parallel on chart recorders. Contractions are induced by addition of phenylephrine.
After several (generally 4) control cycles, the substance to be investigated is added in each further run in increasing dosage, and the height of the contraction achieved under the influence of the test substance is compared with the height of the contraction reached in the last preceding run. The concentration necessary to reduce the contraction reached in the preceding control by 50% is calculated from this (IC50). The standard application volume is 5 μl. The proportion of DMSO in the bath solution corresponds to 0.1%.

The target in assay [3] is T2, Heme-containing sGC (Rattus norvegicus, UniProt P20595).
T2 construct: made in house; host or cells: baculovirus/Sf9
T2 sequence (P20595 1-619): T1 sequence (P20595 1-619)
T2 sequence (P19686 1-690 partner): T1 sequence (P19686 1-690 partner)
Description: Stimulation of recombinant soluble guanylate cyclase (sGC) in vitro, heme-containing enzyme. To be noted: 0.0 μM Example 3. In kind it is biochemical. An excerpt:
B-2. Stimulation of Recombinant Soluble Guanylate Cyclase (sGC) In Vitro:
Hoenicka, E. M. Becker, H. Apeler, T. Sirichoke, H. Schroeder, R. Gerzer and J.-P. Stasch, “Purified soluble guanylyl cyclase expressed in a baculovirus/Sf9 system: Stimulation by YC-1, nitric oxide, and carbon oxide”, J. Mol. Med. 77 (1999), 14-23. The heme-free guanylate cyclase is obtained by adding Tween 20 to the sample buffer (0.5% in the final concentration).
The activation of sGC by a test substance is reported as n-fold stimulation of the basal activity.

Each structure is given as a SMILES string.

For the compound `O=C(O)c1ccc(CCC(/C=C/c2ccccc2OCCCCCN2CCCCC2=O)Cc2ccc(C(=O)O)cc2)cc1` (racemic) [Example 7, 4-[(4E)-3-(4-Carboxybenzyl)-5-(2-{[5-(2-oxopiperidin-1-yl)pentyl]oxy}phenyl)pent-4-en-1-yl]-benzoic acid], the “MEC (minimum effective concentration)” value in assay [1] came to 1 nM.
The same measure, in the same setting: in the case of `O=C(O)c1ccc(CCC(/C=C/c2ccccc2OCCCCCN2CCOC2=O)Cc2ccc(C(=O)O)cc2)cc1` (racemic) [Example 8, 4-[(4E)-3-(4-Carboxybenzyl)-5-(2-{[5-(2-oxo-1,3-oxazolidin-3-yl)pentyl]oxy}phenyl)pent-4-en-1-yl]benzoic acid] it was 1 nM.
`CN1CCCN(CCCCCOc2ccccc2/C=C/C(CCc2ccc(C(=O)O)cc2)Cc2ccc(C(=O)O)cc2)C1=O` (racemic) [Example 10, 4-[(4E)-3-(4-Carboxybenzyl)-5-(2-{[5-(3-methyl-2-oxotetrahydropyrimidin-1(2H)-yl)pentyl]oxy}-phenyl)pent-4-en-1-yl]benzoic acid]: the “MEC (minimum effective concentration)” value in assay [1] is 3 nM.
On the same count and under the same terms, in the case of `O=C(O)c1ccc(CCC(/C=C/c2ccccc2OCCCCN2CCCC2=O)Cc2ccc(C(=O)O)cc2)cc1` (racemic) [Example 11, 4-[(4E)-3-(4-Carboxybenzyl)-5-{2-[4-(2-oxopyrrolidin-1-yl)butoxy]phenyl}pent-4-en-1-yl]benzoic acid] it was less than 1 nM.
The same measure, in the same setting: the value for `O=C(O)c1ccc(CCC(/C=C/c2ccccc2OCCN2CCOC2=O)Cc2ccc(C(=O)O)cc2)cc1` (racemic) [Example 12, 4-[(4E)-3-(4-Carboxybenzyl)-5-{2-[2-(2-oxo-1,3-oxazolidin-3-yl)ethoxy]phenyl}pent-4-en-1-yl]-benzoic acid] was 100 nM.
Consider `O=C(O)c1ccc(CCC(/C=C/c2ccccc2OCCCN2CCOCC2=O)Cc2ccc(C(=O)O)cc2)cc1` (single isomer, unassigned) [Example 4, 4-[(4E)-3-(4-Carboxybenzyl)-5-{2-[3-(3-oxomorpholin-4-yl)propoxy]phenyl}pent-4-en-1-yl]-benzoic acid], for which it took 330 nM to reach half-maximal inhibition in assay [2] (IC50). The “MEC (minimum effective concentration)” value in assay [1] is reported as 2 nM.
`O=C(O)c1ccc(CCC(/C=C/c2ccccc2OCCCN2CCOC2=O)Cc2ccc(C(=O)O)cc2)cc1` (single isomer, unassigned) [Example 5, 4-[(4E)-3-(4-Carboxybenzyl)-5-{2-[3-(2-oxo-1,3-oxazolidin-3-yl)propoxy]phenyl}pent-4-en-1-yl]-benzoic acid] came in with an IC50 in assay [2] of 58 nM.
`O=C(O)c1ccc(CCC(/C=C/c2cc(F)ccc2OCCCN2CCCC2=O)Cc2ccc(C(=O)O)cc2)cc1` (single isomer, unassigned) [Example 6, 4-[(4E)-3-(4-Carboxybenzyl)-5-{5-fluoro-2-[3-(2-oxopyrrolidin-1-yl)propoxy]phenyl}pent-4-en-1-yl]benzoic acid] displayed an IC50 in assay [2] of 135 nM. Further, in assay [1], the “MEC (minimum effective concentration)” value is given as 3 nM.
On to `CCN(CC)[N+]([O-])=NO` [DEA/NO, 2-(N,N-diethylamino)diazenolate 2-oxide, reference compound], for which, in assay [3] (0.1 μM DEA/NO), the “Stimulation (n-fold) of sGC by DEA/NO alone” value was found to be 18.5 n-fold.
In assay [2], `O=C(O)c1ccc(CCC(/C=C/c2cc(F)ccc2OCCCN2CCCC2=O)CCc2ccc(C(=O)O)cc2)cc1` [Example 1, 4-[(4E)-3-[2-(4-Carboxyphenyl)ethyl]-5-{5-fluoro-2-[3-(2-oxopyrrolidin-1-yl)propoxy]phenyl}-pent-4-en-1-yl]benzoic acid] displayed an IC50 of 390 nM. Also, the “MEC (minimum effective concentration)” value in assay [1] was determined as 3 nM.
On the same counts, the results for `O=C(O)c1ccc(CCC(/C=C/c2ccccc2OCCCN2CCCC2=O)CCc2ccc(C(=O)O)cc2)cc1` [Example 2, 4-[(4E)-3-[2-(4-Carboxyphenyl)ethyl]-5-{2-[3-(2-oxopyrrolidin-1-yl)propoxy]phenyl}pent-4-en-1-yl]benzoic acid] are 255 nM and 3 nM.
As to `CC1OCCN(CCCCCOc2ccccc2/C=C/C(CCc2ccc(C(=O)O)cc2)Cc2ccc(C(=O)O)cc2)C1=O` (centres unmarked) [Example 9, 4-[(4E)-3-(4-Carboxybenzyl)-5-(2-[5-(2-methyl-3-oxomorpholin-4-yl)pentyl]oxy 1-phenyl)pent-4-en-1-yl]benzoic acid], the “MEC (minimum effective concentration)” value in assay [1] is recorded as 1 nM.
For the compound `O=c1onc2cnc3ccccc3n12` [ODQ, 1H-1,2,4-oxadiazole-(4,3a)-quinoxalin-1-one, reference compound], the “Stimulation (n-fold) of sGC with ODQ alone” value in assay [3] (10 μM ODQ) is on record as 3.9 n-fold.
